Laboratory results published in US20250313546A1, “NUCLEIC ACID BINDERS” (UNIVERSITY OF STRATHCLYDE, priority 2022, published 2025).
In brackets after ≈: the same amount, converted by molar mass.

Tests used:
[1] = test system: Staphylococcus aureus (ATCC 43300); test: Antibacterial MIC, broth microdilution (CLSI); format: cell-based; details: for S. aureus Selectivity Indices, Group / S. aureus Selectivity Index (SI): SI, IC50 (μM)/MIC80 (μM), HEK293 cytotoxicity; for MIC80: Staphylococcus aureus, ATCC43300, read-out: MIC80 S. aureus; for S. aureus Selectivity Index (SI): numeric value
[2] = test system: Enterococcus faecalis (ATCC 51299); test: Antibacterial MIC, broth microdilution (CLSI); format: cell-based; details: for MIC80: Enterococcus faecalis, ATCC51299, read-out: MIC80 E. faecalis
[3] = test system: Escherichia coli (ATCC 25922); test: Antibacterial MIC, broth microdilution (CLSI); format: cell-based; details: Escherichia coli, ATCC25922; read-out: MIC80 E. coli
[4] = test system: T. vaginalis; test: Trichomonas resorufin assay; format: cell-based; details: for IC50: Trichomonas vaginalis, read-out: IC50 T. vaginalis; for T. vaginalis Selectivity Indices, Group / T. vaginalis Selectivity Index (SI): SI, IC50 (μM)/IC50 (μM), HEK293 cytotoxicity; for T. vaginalis Selectivity Index (SI): numeric value
[5] = test system: Genomic double stranded DNA (salmon); test: Fluorescence intercalator displacement (FID) assay, SYBR-safe probe; details: 20 μM compound, 30° C., lower % = stronger binding
Experimental: (§1) The ability of compounds of the invention to bind to DNA and RNA was assessed using a fluorescence intercalator displacement assay. Genomic double stranded DNA (salmon) or PolyAU double stranded RNA is treated with probe molecule (Sybr-Safe) that increases its fluorescence upon binding to nucleic acids.
(§2) polyAU RNA (Polyadenylic acid—Polyuridylic acid sodium salt, double-stranded homopolymer, P1537, Merck) or genomic DNA (Deoxyribonucleic acid sodium salt from salmon testes, D1626, Merck) was dissolved in 1 mM pH 7.4 phosphate buffer (containing 0.27 mM potassium chloride, 13.7 mM sodium chloride) to a concentration of 1 mg/mL in, SybrSafe (SYBR® Safe DNA Gel Stain, ×10,000 in DMSO, S33102 Invitrogen) was used as supplied by the manufacturer in DMSO, and compounds of the invention were prepared as 10 mM stocks in DMSO. These stock solutions were diluted appropriately with each other and 1 mM phosphate buffer to give test solutions comprised of 20 μM compound of the invention, 12500-fold dilution of SybrSafe and 3.76 ng/mL RNA/DNA. Control solutions of RNA/DNA and SybrSafe, RNA/DNA, and SybrSafe at these concentrations were also prepared. Test and control solutions were heated to 30° C. and the fluorescence of each solution was measured using the SYBER filter setting of a StepOnePlus using melt analysis mode (StepOne Software v2.3). The reduction of fluorescence due to the binding of the compound of the invention to the RNA/DNA was calculated as a normalised percentage based on the fluorescence measured due to the control with SybrSafe and RNA/DNA as maximum and the control with only SybrSafe as minimum.
(§3) A reduction in normalised % is indicative of probe displacement and thus strong nucleic acid binding.

[6] = test system: PolyAU double stranded RNA; test: as above; details: 20 μM compound, 30° C., lower % = stronger binding
Experimental: as §1, §2, §3

[7] = test system: C. neoformans (F10025); details: Cryptococcus neoformans, read-out: MIC99 C. neoformans
[8] = test system: A. fumigatus A1160 (MFIG001); details: Aspergillus fumigatus, read-out: MIC99 A. fumigatus A1160
[9] = test system: Candida glabrata (ACPF3309); details: Nakaseomyces glabratus, read-out: MIC99 Candida glabrata
[10] = SI, IC50 (μM)/MIC80 (μM), HEK293 cytotoxicity, Quaternary ammoniums

Row | SMILES | S. aureus Selectivity Indices, Group ([1]; Alkyl Amidines and NH Pyrroles) | MIC80 [1] | MIC80 [2] | MIC80 [3] | IC50 [4] | % Normalised Fluorescence with gDNA [5] | % Normalised Fluorescence with polyAU RNA [6] | MIC99 [7] | MIC99 [8] | S. aureus Selectivity Index (SI) [1] | E. faecalis Selectivity Indices, Group ([2]; SI, IC50 (μM)/MIC80 (μM), HEK293 cytotoxicity, Alkyl Amidines and NH Pyrroles) | T. vaginalis Selectivity Indices, Group ([4]; Alkyl Amidines and NH Pyrroles) | MIC99 [9] | E. faecalis Selectivity Indices, Group [2, 10] | E. faecalis Selectivity Index (SI) ([2]; SI, IC50 (μM)/MIC80 (μM), HEK293 cytotoxicity, numeric value) | T. vaginalis Selectivity Indices, Group ([4]; Quaternary ammoniums) | T. vaginalis Selectivity Index (SI) [4] | S. aureus Selectivity Indices, Group ([1]; Quaternary ammoniums)
1 | COc1ccc(/C=C/c2ccc(C(=O)Nc3cc(C(=O)Nc4cc(C(=O)NCCC(=N)NC(C)C)n(C)c4)n(C)c3)cc2)cc1 [Ia18, (E)-N-(3-imino-3-(isopropylamino)propyl)-4-(4-(4-(4-methoxystyryl)benzamido)-1-methyl-1H-pyrrole-2-carboxamido)-1-methyl-1H-pyrrole-2-carboxamide] | B (Group B: 3 < SI <= 5) | 5 to 25 µM (≈ 3.05 to 15.2 µg/mL) | 5 to 25 µM (≈ 3.05 to 15.2 µg/mL) | 25 to 100 µM (≈ 15.2 to 61 µg/mL) | 5 to 50 µM | 6% | 9% | 5 to 25 µg/mL (≈ 8.2 to 41 µM) | > 50 µg/mL |  |  |  |  |  |  |  |  | 
2 | Cn1cc(NC(=O)c2cc(NC(=O)c3ccc(/C=C/c4cnc5ccccc5c4)cc3)cn2C)cc1C(=O)NCCC(=N)N1CCSCC1 [Ib7, (E)-N-(3-imino-3-thiomorpholinopropyl)-1-methyl-4-(1-methyl-4-(4-(2-(quinolin-3-yl)vinyl)benzamido)-1H-pyrrole-2-carboxamido)-1H-pyrrole-2-carboxamide] | D (D: SI > 10) | < 5 µM | < 5 µM | > 100 µM | 1 to 5 µM | 22% | 7% | 5 to 25 µg/mL (≈ 7.41 to 37 µM) |  | 26 | C (Group C: 5 < SI <= 10) | B (Group B: 8 < SI <= 16) | 5 to 25 µg/mL (≈ 7.41 to 37 µM) |  |  |  |  | 
3 | CC[N+](C)(C)CCNC(=O)c1cc(NC(=O)c2cc(NC(=O)c3ccc(/C=C/c4cnc5ccccc5c4)cc3)cn2C)cn1C [Ic1, (E)-N-ethyl-N,N-dimethyl-2-(1-methyl-4-(1-methyl-4-(4-(2-(quinolin-3-yl)vinyl)benzamido)-1H-pyrrole-2-carboxamido)-1H-pyrrole-2-carboxamido)ethan-1-aminium] |  | < 5 µM | < 5 µM | > 100 µM | < 1 µM |  |  | 5 to 25 µg/mL | > 50 µg/mL |  |  |  | 5 to 25 µg/mL |  |  |  |  | 
4 | CCC[N+](C)(C)CCNC(=O)c1cc(NC(=O)c2cc(NC(=O)c3ccc(/C=C/c4cnc5ccccc5c4)cc3)cn2C)cn1C [Ic2, (E)-N,N-dimethyl-N-(2-(1-methyl-4-(1-methyl-4-(4-(2-(quinolin-3-yl)vinyl)benzamido)-1H-pyrrole-2-carboxamido)-1H-pyrrole-2-carboxamido)ethyl)propan-1-aminium] |  | < 5 µM | < 5 µM | > 100 µM | < 1 µM |  |  | 5 to 25 µg/mL | > 50 µg/mL |  |  |  | < 5 µg/mL |  |  |  |  | 
5 | CCCC[N+](C)(C)CCNC(=O)c1cc(NC(=O)c2cc(NC(=O)c3ccc(/C=C/c4cnc5ccccc5c4)cc3)cn2C)cn1C [Ic3, (E)-N,N-dimethyl-N-(2-(1-methyl-4-(1-methyl-4-(4-(2-(quinolin-3-yl)vinyl)benzamido)-1H-pyrrole-2-carboxamido)-1H-pyrrole-2-carboxamido)ethyl)butan-1-aminium] |  | < 5 µM | < 5 µM | > 100 µM | 1 to 5 µM |  |  | 5 to 25 µg/mL | > 50 µg/mL |  |  |  | 5 to 25 µg/mL | D (Group D: SI > 5) | 11 | D (Group D: SI > 3) | 6 | 
6 | CCCCC[N+](C)(C)CCNC(=O)c1cc(NC(=O)c2cc(NC(=O)c3ccc(/C=C/c4cnc5ccccc5c4)cc3)cn2C)cn1C [Ic4, (E)-N,N-dimethyl-N-(2-(1-methyl-4-(1-methyl-4-(4-(2-(quinolin-3-yl)vinyl)benzamido)-1H-pyrrole-2-carboxamido)-1H-pyrrole-2-carboxamido)ethyl)pentan-1-aminium] |  | < 5 µM | < 5 µM | > 100 µM | 1 to 5 µM |  |  | 5 to 25 µg/mL | > 50 µg/mL | 11 |  |  | 5 to 25 µg/mL | C (Group C: 2 < SI <= 5) |  | D (Group D: SI > 3) | 4 | D (Group D: SI > 10)
7 | CCCCCCCC[N+](C)(C)CCNC(=O)c1cc(NC(=O)c2cc(NC(=O)c3ccc(/C=C/c4cnc5ccccc5c4)cc3)cn2C)cn1C [Ic7, (E)-N,N-dimethyl-N-(2-(1-methyl-4-(1-methyl-4-(4-(2-(quinolin-3-yl)vinyl)benzamido)-1H-pyrrole-2-carboxamido)-1H-pyrrole-2-carboxamido)ethyl)octan-1-aminium] |  | < 5 µM | > 100 µM | > 100 µM | 5 to 50 µM |  |  | 5 to 25 µg/mL | > 50 µg/mL | 13 |  |  | 5 to 25 µg/mL |  |  |  |  | D (Group D: SI > 10)
8 | CCCCCCCCC[N+](C)(C)CCNC(=O)c1cc(NC(=O)c2cc(NC(=O)c3ccc(/C=C/c4cnc5ccccc5c4)cc3)cn2C)cn1C [Ic8, (E)-N,N-dimethyl-N-(2-(1-methyl-4-(1-methyl-4-(4-(2-(quinolin-3-yl)vinyl)benzamido)-1H-pyrrole-2-carboxamido)-1H-pyrrole-2-carboxamido)ethyl)nonan-1-aminium] |  | < 5 µM | > 100 µM | > 100 µM | 5 to 50 µM |  |  | 25 to 50 µg/mL | > 50 µg/mL | 6 |  |  | 5 to 25 µg/mL |  |  |  |  | C (Group C: 5 < SI <= 10)
9 | CCCCCCCCCCC[N+](C)(C)CCNC(=O)c1cc(NC(=O)c2cc(NC(=O)c3ccc(/C=C/c4cnc5ccccc5c4)cc3)cn2C)cn1C [Ic10, (E)-N,N-dimethyl-N-(2-(1-methyl-4-(1-methyl-4-(4-(2-(quinolin-3-yl)vinyl)benzamido)-1H-pyrrole-2-carboxamido)-1H-pyrrole-2-carboxamido)ethyl)undecan-1-aminium] |  | 5 to 25 µM | > 100 µM | > 100 µM | 5 to 50 µM |  |  | > 50 µg/mL | > 50 µg/mL |  |  |  | 25 to 50 µg/mL |  |  |  |  | 
10 | CCCCCCCCCCCC[N+](C)(C)CCNC(=O)c1cc(NC(=O)c2cc(NC(=O)c3ccc(/C=C/c4cnc5ccccc5c4)cc3)cn2C)cn1C [Ic11, (E)-N,N-dimethyl-N-(2-(1-methyl-4-(1-methyl-4-(4-(2-(quinolin-3-yl)vinyl)benzamido)-1H-pyrrole-2-carboxamido)-1H-pyrrole-2-carboxamido)ethyl)dodecan-1-aminium] |  | 5 to 25 µM | 25 to 100 µM | > 100 µM | 5 to 50 µM |  |  | > 50 µg/mL | > 50 µg/mL |  |  |  | 5 to 25 µg/mL |  |  |  |  | 
11 | CCCCCCCCCCCCCCC[N+](C)(C)CCNC(=O)c1cc(NC(=O)c2cc(NC(=O)c3ccc(/C=C/c4cnc5ccccc5c4)cc3)cn2C)cn1C [Ic14, (E)-N,N-dimethyl-N-(2-(1-methyl-4-(1-methyl-4-(4-(2-(quinolin-3-yl)vinyl)benzamido)-1H-pyrrole-2-carboxamido)-1H-pyrrole-2-carboxamido)ethyl)pentadecan-1-aminium] |  |  |  |  | 5 to 50 µM |  |  | > 50 µg/mL | > 50 µg/mL |  |  |  | 25 to 50 µg/mL |  |  |  |  | 
12 | CCCCCCCCCCCCCCCC[N+](C)(C)CCNC(=O)c1cc(NC(=O)c2cc(NC(=O)c3ccc(/C=C/c4cnc5ccccc5c4)cc3)cn2C)cn1C [Ic15, (E)-N,N-dimethyl-N-(2-(1-methyl-4-(1-methyl-4-(4-(2-(quinolin-3-yl)vinyl)benzamido)-1H-pyrrole-2-carboxamido)-1H-pyrrole-2-carboxamido)ethyl)hexadecan-1-aminium] |  |  |  |  | 5 to 50 µM |  |  | 25 to 50 µg/mL | > 50 µg/mL |  |  |  | > 50 µg/mL |  |  |  |  | 
